ChEMBL document CHEMBL5584294, “Adpressins A-G: Oligophenalenone Dimers from Talaromyces adpressus” (J Nat Prod, 2024)

Tests used:
T-cell [1] = test: Immunosuppressive activity in BALB/c mouse T-lymphocytes assessed as inhibition of ConA-induced cell proliferation pretreated with Concanavalin A for 24 hrs followed by compound addition and measured after 48 hrs by CCK-8 assay; format: functional, cell-based
B-cell line = test: Immunosuppressive activity in BALB/c mouse B-lymphocytes assessed as inhibition of LPS-induced cell proliferation pretreated with LPS for 24 hrs followed by compound addition and measured after 48 hrs by CCK-8 assay; format: functional, cell-based
T-cell [2] = test: (§1) Immunosuppressive activity in ConA-induced BALB/c mouse T-lymphocytes assessed as Treg cell subsets by measuring CD25positiveFOXP3positive cells at 5 uM pretreated with Concanavalin A for 24 hrs followed by compound addition and measured after 48 hrs by flow cytometry analysis (reference value: 5.7%); format: functional
T-cell [3] = test: as §1, with “CD25positiveFOXP3negative” for “CD25positiveFOXP3positive”, “10” for “5”, “66.9%)” for “5.7%)”; format: functional
T-cell [4] = test: (§2) Immunosuppressive activity in BALB/c mouse T-lymphocytes assessed as reduction in ConA-induced CD8 subpopulation by measuring CD3positiveCD8negative cells at 10 uM pretreated with Concanavalin A for 24 hrs followed by compound addition and measured after 48 hrs by flow cytometry analysis (reference value: 70.9%); format: functional; design: scale not given: the % may be the effect or the level left
T-cell [5] = test: as §1, with “CD25negativeFOXP3negative” for “CD25positiveFOXP3positive”, “10” for “5”, “27.2%)” for “5.7%)”; format: functional
T-cell [6] = test: as §1, with “CD25negativeFOXP3positive” for “CD25positiveFOXP3positive”, “10” for “5”, “0.2%)” for “5.7%)”; format: functional
T-cell [7] = test: as §2, with “CD3negativeCD8positive” for “CD3positiveCD8negative”, “0%)” for “70.9%)”; format: functional; design: scale not given: the % may be the effect or the level left
T-cell [8] = test: as §2, with “CD3negativeCD8negative” for “CD3positiveCD8negative”, “5” for “10”, “0%)” for “70.9%)”; format: functional; design: scale not given: the % may be the effect or the level left
T-cell [9] = test: as §2, with “CD4” for “CD8”, “CD3positiveCD4positive” for “CD3positiveCD8negative”, “87.8%)” for “70.9%)”; format: functional; design: scale not given: the % may be the effect or the level left
T-cell [10] = test: as §2, with “CD4” for “CD8”, “CD3positiveCD4negative” for “CD3positiveCD8negative”, “12.2%)” for “70.9%)”; format: functional; design: scale not given: the % may be the effect or the level left
T-cell [11] = test: as §2, with “CD3negativeCD8negative” for “CD3positiveCD8negative”, “0%)” for “70.9%)”; format: functional; design: scale not given: the % may be the effect or the level left
T-cell [12] = test: as §1, with “CD25positiveFOXP3negative” for “CD25positiveFOXP3positive”, “66.9%)” for “5.7%)”; format: functional
T-cell [13] = test: as §2, with “CD4” for “CD8”, “CD3negativeCD4negative” for “CD3positiveCD8negative”, “5” for “10”, “0%)” for “70.9%)”; format: functional; design: scale not given: the % may be the effect or the level left
T-cell [14] = test: as §2, with “CD3positiveCD8positive” for “CD3positiveCD8negative”, “5” for “10”, “29.1%)” for “70.9%)”; format: functional; design: scale not given: the % may be the effect or the level left
T-cell [15] = test: as §2, with “CD4” for “CD8”, “CD3positiveCD4positive” for “CD3positiveCD8negative”, “5” for “10”, “87.8%)” for “70.9%)”; format: functional; design: scale not given: the % may be the effect or the level left
T-cell [16] = test: as §2, with “CD3positiveCD8positive” for “CD3positiveCD8negative”, “29.1%)” for “70.9%)”; format: functional; design: scale not given: the % may be the effect or the level left
T-cell [17] = test: as §2, with “5” for “10”; format: functional; design: scale not given: the % may be the effect or the level left
T-cell [18] = test: as §1, with “CD25negativeFOXP3positive” for “CD25positiveFOXP3positive”, “0.2%)” for “5.7%)”; format: functional
T-cell [19] = test: as §1, with “CD25negativeFOXP3negative” for “CD25positiveFOXP3positive”, “27.2%)” for “5.7%)”; format: functional
T-cell [20] = test: as §2, with “CD4” for “CD8”, “CD3negativeCD4positive” for “CD3positiveCD8negative”, “5” for “10”, “0%)” for “70.9%)”; format: functional; design: scale not given: the % may be the effect or the level left
T-cell [21] = test: as §1, with “at 10” for “at 5”; format: functional
T-cell [22] = test: as §2, with “CD3negativeCD8positive” for “CD3positiveCD8negative”, “5” for “10”, “0%)” for “70.9%)”; format: functional; design: scale not given: the % may be the effect or the level left
T-cell [23] = test: as §2, with “CD4” for “CD8”, “CD3negativeCD4positive” for “CD3positiveCD8negative”, “0%)” for “70.9%)”; format: functional; design: scale not given: the % may be the effect or the level left
T-cell [24] = test: as §2, with “CD4” for “CD8”, “CD3positiveCD4negative” for “CD3positiveCD8negative”, “5” for “10”, “12.2%)” for “70.9%)”; format: functional; design: scale not given: the % may be the effect or the level left
T-cell [25] = test: as §2, with “CD4” for “CD8”, “CD3negativeCD4negative” for “CD3positiveCD8negative”, “0%)” for “70.9%)”; format: functional; design: scale not given: the % may be the effect or the level left

With Cc1cc(O)c2c3c1C(=O)[C@@H]1c4c(c5oc(=O)ccc5c5cc(O)cc(C)c45)[C@@]3(COC2=O)[C@H]1O the IC50 (T-cell [1]) was over 40 µM and the IC50 (B-cell line) was over 40 µM.
In the case of Cc1cc(O)c2c3c1C(=O)[C@@H]1c4c(c(O)c5c6c(c(O)cc(C)c46)C(=O)O5)[C@@]3(COC2=O)[C@H]1O, the IC50 (T-cell [1]) is reported as over 40 µM and the IC50 (B-cell line) is reported as over 40 µM.
Compound COC(=O)C[C@H]1OC(=O)c2c(O)cc(C)c3c4c(c(O)c1c23)[C@]12COC(=O)c3c(O)cc(C)c(c31)C(=O)[C@H]4[C@@H]2O has an IC50 (T-cell [1]) of over 40 µM and an IC50 (B-cell line) of over 40 µM.
CC(=O)O[C@H]1[C@@H]2C(=O)c3c(C)cc(O)c4c3[C@@]1(COC4=O)c1c(O)cc3cc(O)cc(C)c3c12 showed an IC50 (T-cell [1]) of over 40 µM and an IC50 (B-cell line) of over 40 µM.
In the case of CC(=O)O[C@H]1[C@@H]2C(=O)c3c(C)cc(O)c4c3[C@@]1(COC4=O)C1=C2c2c(C)cc(O)c3c2C(C1=O)C1CCCN1C3=O (some centres not stated), the IC50 (T-cell [1]) is reported as over 40 µM and the IC50 (B-cell line) is reported as over 40 µM.
Compound Cc1cc(O)c2c3c1C(=O)[C@@H]1c4c(c(O)cc5cc(O)cc(C)c45)[C@@]3(COC2=O)[C@H]1O has an IC50 (T-cell [1]) of over 40 µM and an IC50 (B-cell line) of over 40 µM.
Cc1cc(O)c2c3c1C(=O)[C@@H]1c4c(c(O)c5c6c(c(O)cc(C)c46)C(=O)OC5=O)[C@@]3(COC2=O)[C@H]1O was tested, and the IC50 (T-cell [1]) was over 40 µM and the IC50 (B-cell line) was over 40 µM.
Compound CO[C@@H]1N(CCO)C(=O)c2c(O)cc(C)c3c2[C@]1(O)C(=O)C1=C3[C@H]2C(=O)c3c(C)cc(O)c4c3[C@]1(COC4=O)[C@H]2O has an Activity (T-cell [2]) of 4.6%, an Activity (T-cell [3]) of 76% and an IC50 (T-cell [1]) of 9.3 µM. For the same compound, the Activity (T-cell [4]) was 61.2%, the Activity (T-cell [5]) was 21.3% and the Activity (T-cell [6]) was 0.3%. The Activity (T-cell [7]) was 0%, the Activity (T-cell [8]) was 0% and the Activity (T-cell [9]) was 75.9%. The Activity (T-cell [10]) was 24.1%, the Activity (T-cell [11]) was 0% and the IC50 (B-cell line) was 2.1 µM. It also gave an Activity (T-cell [12]) of 77.2%, an Activity (T-cell [13]) of 0% and an Activity (T-cell [14]) of 39.5%. It also gave an Activity (T-cell [15]) of 76.6%, an Activity (T-cell [16]) of 38.8% and an Activity (T-cell [17]) of 60.5%. For the same compound, the Activity (T-cell [18]) was 0.1%, the Activity (T-cell [19]) was 18.1% and the Activity (T-cell [20]) was 0%. For the same compound, the Activity (T-cell [21]) was 2.5%, the Activity (T-cell [22]) was 0% and the Activity (T-cell [23]) was 0%. For the same compound, the Activity (T-cell [24]) was 23.4% and the Activity (T-cell [25]) was 0%.
Compound Cc1cc(O)c2c3c1C1=C(C(=O)C3C3CCCN3C2=O)[C@]23COC(=O)c4c(O)cc(C)c(c42)C(=O)[C@H]1[C@@H]3O (some centres not stated) has an IC50 (T-cell [1]) of over 40 µM and an IC50 (B-cell line) of over 40 µM.
